From patent US11590116B2 (THERAVANCE BIOPHARMA R&D IP, LLC, priority 2019, dated 2023)

Columns and labels:
[1] = tested on: TGF-β-stimulated SMAD3 phosphorylation in BEAS-2B cells; test: Cellular ALK5 potency assay, inhibition of TGF-β stimulated pSMAD3 formation in BEAS-2B cells; format: cell-based; conditions: Homo sapiens; inhibition of TGF-β stimulated pSMAD3 formation, BEAS-2B cells; read-out: BEAS2B pIC50 (converted)
Procedure, shortened: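 Cells seeded overnight; rinse with supplemented HBSS; compound 1 h at 37 °C; TGF-β 10 ng/mL final, 30 min; lyse; AlphaLISA acceptor and detector beads 2 h apart, read next day. Potency expressed as pIC50.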

[2] = molecular target: T1, recombinant human ALK5 (TGF-βR1) protein (Homo sapiens, UniProt P36897); test: Biochemical ALK5 (TGF-βR1) assay to measure pKi (LANCE Ultra ULight kinase assay); conditions: apparent pKi from pIC50 by Cheng-Prusoff, read-out: ALK5 pKi (converted)
T1 construct: purchased Life Technologies PR9075A
T1 sequence (P36897 34-503): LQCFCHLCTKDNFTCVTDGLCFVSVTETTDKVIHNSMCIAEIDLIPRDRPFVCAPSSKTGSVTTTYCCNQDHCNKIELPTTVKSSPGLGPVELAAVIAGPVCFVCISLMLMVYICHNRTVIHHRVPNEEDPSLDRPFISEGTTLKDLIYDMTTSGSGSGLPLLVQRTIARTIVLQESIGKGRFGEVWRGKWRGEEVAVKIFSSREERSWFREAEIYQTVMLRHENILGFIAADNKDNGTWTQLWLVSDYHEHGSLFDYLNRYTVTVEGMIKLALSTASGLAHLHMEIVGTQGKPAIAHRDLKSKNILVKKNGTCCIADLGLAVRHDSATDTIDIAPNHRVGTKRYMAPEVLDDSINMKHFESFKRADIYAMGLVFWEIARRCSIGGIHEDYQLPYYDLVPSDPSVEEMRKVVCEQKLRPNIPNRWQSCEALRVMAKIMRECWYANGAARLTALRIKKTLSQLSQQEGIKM
Procedure, shortened: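 Compounds (10 μM to 25 pM) were preincubated 60 min at room temperature with enzyme, then reactions were started with ATP (125 μM stock, 5× final) and run 60 min at 37 °C. EDTA-containing Eu-anti-phospho-Topo IIα (Thr1342) antibody stopped the reaction; TR-FRET read at 665 nm. pIC50 from 4-parameter fit, converted to pKi via Cheng-Prusoff.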

Ki [2] | SMILES | IC50 [1]
0.0398 to 0.316 nM | Cc1cccc(-c2nnn(Cc3ccccc3)c2-c2ccc3ncc(N4CCC(N(C)C)C4)cc3c2)n1 (centres unmarked) [Compound 191, 1-[6-[3-benzyl-5-(6-methyl-2-pyridyl)triazol-4-yl]-3-quinolyl]-N,N-dimethyl-pyrrolidin-3-amine] | 25.1 to 158 nM
0.0398 to 0.316 nM | Cc1cccc(-c2[nH]cnc2-c2ccc3ncc(-c4ncc(C(=O)OC5CCNCC5)cn4)cc3c2)n1 [Compound 1101, 4-piperidyl 2-[6-[5-(6-methyl-2-pyridyl)-1H-imidazol-4-yl]-3-quinolyl]pyrimidine-5-carboxylate] | 25.1 to 158 nM
0.0398 to 0.316 nM | Cc1cccc(-c2[nH]ncc2-c2ccc3ncc(C(=O)OCCN4CCN(C(C)C)CC4)cc3n2)n1 [Compound 389, 2-(4-isopropylpiperazin-1-yl)ethyl 6-[5-(6-methyl-2-pyridyl)-1H-pyrazol-4-yl]-1,5-naphthyridine-3-carboxylate] | 25.1 to 158 nM
0.0398 to 0.316 nM | Cc1cccc(-c2n[nH]cc2-c2ccc3ncc(N4CCCN(C)CC4)cc3n2)n1 [Compound 144, 7-(4-methyl-1,4-diazepan-1-yl)-2-[3-(6-methyl-2-pyridyl)-1H-pyrazol-4-yl]-1,5-naphthyridine] | 25.1 to 158 nM
0.0398 to 0.316 nM | Cc1cccc(-c2nc3ccccn3c2-c2ccc3ncc(NCCN4CCN(C(C)C)CC4)cc3n2)n1 [Compound 120, N-(2-(4-isopropylpiperazin-1-yl)ethyl)-6-(2-(6-methylpyridin-2-yl)imidazo[1,2-a]pyridin-3-yl)-1,5-naphthyridin-3-amine] | 25.1 to 158 nM
0.0398 to 0.316 nM | Cc1cccc(-c2[nH]cnc2-c2ccc3ncc(N4CCNC(CC(=O)OCC(C)C)C4)cc3c2)n1 (centres unmarked) [Compound 690, isobutyl 2-[4-[6-[5-(6-methyl-2-pyridyl)-1H-imidazol-4-yl]-3-quinolyl]piperazin-2-yl]acetate] | 25.1 to 158 nM
0.0398 to 0.316 nM | Cc1cccc(-c2nc3ccccn3c2-c2ccc3ncc(-c4cn[nH]c4)cc3n2)n1 [Compound 469, 2-(2-(6-methylpyridin-2-yl)imidazo[1,2-a]pyridin-3-yl)-7-(1H-pyrazol-4-yl)-1,5-naphthyridine] | < 20 nM
0.0398 to 0.316 nM | Cc1cccc(-c2[nH]cnc2-c2ccc3ncc(-c4cccc(C(=O)OCCN5CCNCC5)n4)cc3c2)n1 [Compound 1151, 2-piperazin-1-ylethyl 6-[6-[5-(6-methyl-2-pyridyl)-1H-imidazol-4-yl]-3-quinolyl]pyridine-2-carboxylate] | 200 to 1260 nM
0.0398 to 0.316 nM | CNCCn1cc(-c2cnc3ccc(-c4c(-c5cccc(C)n5)nn5cc(Cl)ccc45)cc3c2)cn1 [Compound 605, 2-[4-[6-[6-chloro-2-(6-methyl-2-pyridyl)pyrazolo[1,5-a]pyridin-3-yl]-3-quinolyl]pyrazol-1-yl]-N-methyl-ethanamine] | 200 to 1260 nM
0.0398 to 0.316 nM | Cc1cccc(-c2nc3ccccn3c2-c2ccc3ncc(-c4nnn5c4CNCC5)cc3n2)n1 [Compound 207, 2-[2-(6-methyl-2-pyridyl)imidazo[1,2-a]pyridin-3-yl]-7-(4,5,6,7-tetrahydrotriazolo[1,5-a]pyrazin-3-yl)-1,5-naphthyridine] | 25.1 to 158 nM
0.0398 to 0.316 nM | Cc1cccc(-c2[nH]ncc2-c2ccc3nccc(C(=O)OC4CCNCC4)c3c2)n1 [Compound 1210, 4-piperidyl 6-[5-(6-methyl-2-pyridyl)-1H-pyrazol-4-yl]quinoline-4-carboxylate] | 25.1 to 158 nM
0.0398 to 0.316 nM | COC(=O)CC1CNCCN1CCNc1cnc2ccc(-c3nc[nH]c3-c3cccc(C)n3)cc2c1 (centres unmarked) [Compound 659, methyl 2-[1-[2-[[6-[5-(6-methyl-2-pyridyl)-1H-imidazol-4-yl]-3-quinolyl]amino]ethyl]piperazin-2-yl]acetate] | 200 to 1260 nM
< 0.0316 nM | Cc1cccc(-c2n[nH]cc2-c2ccc3ncc(-c4cn(Cc5c[nH]cn5)nn4)cc3n2)n1 [Compound 101, 7-[1-(1H-imidazol-4-ylmethyl)triazol-4-yl]-2-[3-(6-methyl-2-pyridyl)-1H-pyrazol-4-yl]-1,5-naphthyridine] | 200 to 1260 nM
